Reference: US20210254272A1, “TEXTILES HAVING ANTIMICROBIAL PROPERTIES” (Livinguard AG, priority 2015, published 2021)

System: E. coli (ATCC 25922)
Assay: AATCC Test Method 100-2012 antibacterial activity of the treated textile, after 25 washes and 12 abrasion cycles, contact time 60 minutes
Type: cell-based
Settings: for Log reduction of antimicrobial performance: 1% o.w.f; for Log reduction of antimicrobial performance in 100 GSM Polyester fabric / Log reduction of antimicrobial performance in 100 GSM cotton fabric / Log reduction of antimicrobial performance in 300 GSM Polyester fabric / Log reduction of antimicrobial performance in 300 GSM cotton fabric / Performance Test-Log reduction of antimicrobial performance: 2 min; for Performance Test-Log reduction of antimicrobial performance: pad process, single agent 5 gm/lit
Description: The antibacterial activity of the textile was tested in accordance with AATCC Test Method 100-2012. Prior to the test, the fabric was cut into coupons of 2×4 inches and washed separately 25 times, and exposed to 12 abrasion cycles, as per US EPA protocol 90072PA4 (described further below). The tests were made against E. coli (ATCC 25922). Contact time was 60 minutes, after inoculating with 10^8 CFU per coupon.

[1] = exhaust 80° C., 60 min, curing 180° C., dosage 0.1% o.w.f
[2] = exhaust 80° C., 60 min, curing 180° C., dosage 0.2% o.w.f
[3] = exhaust 80° C., 60 min, curing 180° C., dosage 0.5% o.w.f
[4] = exhaust 80° C., 60 min, curing 180° C., dosage 0.8% o.w.f
[5] = exhaust 80° C., 60 min, curing 180° C., dosage 1.0% o.w.f

In the case of Silver, the “Log reduction of antimicrobial performance of each active ingredient” value (shortened to “Log reduction … of each active ingredient”) (exhaust 60° C., solution dosage 1% o.w.f, process time 60 min) is reported as 1.1 Log, the “Log reduction … of each active ingredient” value (exhaust 60° C., solution dosage 1% o.w.f, process time 90 min) is reported as 1.3 Log and the “Log reduction … of each active ingredient” value (exhaust 60° C., solution dosage 1% o.w.f, process time 120 min) is reported as 1.5 Log. The “Log reduction … of each active ingredient” value (exhaust 60° C., solution dosage 1% o.w.f, process time 180 min) was 1.8 Log, the “Log reduction … of each active ingredient” value (exhaust 60° C., solution dosage 1% o.w.f, process time 240 min) was 1.75 Log and the “Log reduction of antimicrobial performance” value (exhaust 80° C., 60 min, curing 170° C., curing dwell time 0.5 min) was 0.2 Log. The “Log reduction of antimicrobial performance” value (exhaust 80° C., 60 min, curing 170° C., curing dwell time 1.0 min) was 0.5 Log, the “Log reduction of antimicrobial performance” value (exhaust 80° C., 60 min, curing 170° C., curing dwell time 1.5 min) was 0.7 Log and the “Log reduction of antimicrobial performance” value (exhaust 80° C., 60 min, curing 170° C., curing dwell time 2.0 min) was 1.6 Log. The “Log reduction of antimicrobial performance” value (exhaust 80° C., 60 min, curing 170° C., curing dwell time 2.5 min) was 1.1 Log, the “Log reduction of antimicrobial performance” value (exhaust 80° C., 60 min, curing 170° C., curing dwell time 3.0 min) was 0.7 Log and the “Log reduction of antimicrobial performance” value (exhaust 80° C., 60 min, curing 180° C., curing dwell time 0.5 min) was 1.1 Log. For the same substance, the “Log reduction of antimicrobial performance” value (exhaust 80° C., 60 min, curing 180° C., curing dwell time 1.0 min) was 1.3 Log, the “Log reduction of antimicrobial performance” value (exhaust 80° C., 60 min, curing 180° C., curing dwell time 1.5 min) was 1.5 Log and the “Log reduction of antimicrobial performance” value (exhaust 80° C., 60 min, curing 180° C., curing dwell time 2.0 min) was 3.8 Log. For the same substance, the “Log reduction of antimicrobial performance” value (exhaust 80° C., 60 min, curing 180° C., curing dwell time 2.5 min) was 3.7 Log, the “Log reduction of antimicrobial performance” value (exhaust 80° C., 60 min, curing 180° C., curing dwell time 3.0 min) was 3.5 Log and the “Log reduction of antimicrobial performance” value (exhaust 80° C., 60 min, curing 190° C., curing dwell time 0.5 min) was 0.6 Log. The “Log reduction of antimicrobial performance” value (exhaust 80° C., 60 min, curing 190° C., curing dwell time 1.0 min) was 0.9 Log, the “Log reduction of antimicrobial performance” value (exhaust 80° C., 60 min, curing 190° C., curing dwell time 1.5 min) was 1.5 Log and the “Log reduction of antimicrobial performance” value (exhaust 80° C., 60 min, curing 190° C., curing dwell time 2.0 min) was 2.79 Log. The “Log reduction of antimicrobial performance” value (exhaust 80° C., 60 min, curing 190° C., curing dwell time 2.5 min) was 2.2 Log, the “Log reduction of antimicrobial performance” value (exhaust 80° C., 60 min, curing 190° C., curing dwell time 3.0 min) was 1.1 Log and the “Log reduction of antimicrobial performance” value (exhaust 80° C., 60 min, curing temperature 100 ° C.) was 0.21 Log. The “Log reduction of antimicrobial performance” value (exhaust 80° C., 60 min, curing temperature 120 ° C.) was 0.32 Log, the “Log reduction of antimicrobial performance” value (exhaust 80° C., 60 min, curing temperature 140 ° C.) was 0.99 Log and the “Log reduction of antimicrobial performance” value (exhaust 80° C., 60 min, curing temperature 160 ° C.) was 1.04 Log. For the same substance, the “Log reduction of antimicrobial performance” value (exhaust 80° C., 60 min, curing temperature 165 ° C.) was 1.12 Log, the “Log reduction of antimicrobial performance” value (exhaust 80° C., 60 min, curing temperature 170 ° C.) was 1.59 Log and the “Log reduction of antimicrobial performance” value (exhaust 80° C., 60 min, curing temperature 175 ° C.) was 2.05 Log. For the same substance, the “Log reduction of antimicrobial performance” value (exhaust 80° C., 60 min, curing temperature 180 ° C.) was 2.78 Log, the “Log reduction of antimicrobial performance” value (exhaust 80° C., 60 min, curing temperature 185 ° C.) was 2.79 Log and the “Log reduction of antimicrobial performance” value (exhaust 80° C., 60 min, curing temperature 190 ° C.) was 2.8 Log. For the same substance, the “Log reduction of antimicrobial performance” value (exhaust 80° C., 60 min, curing temperature 195 ° C.) was 2.82 Log, the “Log reduction of antimicrobial performance in 100 GSM Polyester fabric” value (“Log reduction … in 100 GSM Polyester fabric” for short) [1] was 0.56 Log and the “Log reduction of antimicrobial performance in 100 GSM cotton fabric” value (from here on “Log reduction … in 100 GSM cotton fabric”) [1] was 0.55 Log. The “Log reduction of antimicrobial performance in 300 GSM Polyester fabric” value (shortened to “Log reduction … in 300 GSM Polyester fabric”) [1] was 0.54 Log, the “Log reduction of antimicrobial performance in 300 GSM cotton fabric” value (shortened to “Log reduction … in 300 GSM cotton fabric”) [1] was 0.57 Log and the “Log reduction … in 100 GSM Polyester fabric” value [2] was 1.45 Log. For the same substance, the “Log reduction … in 100 GSM cotton fabric” value [2] was 1.35 Log, the “Log reduction … in 300 GSM Polyester fabric” value [2] was 1.48 Log and the “Log reduction … in 300 GSM cotton fabric” value [2] was 1.35 Log. For the same substance, the “Log reduction … in 100 GSM Polyester fabric” value [3] was 1.77 Log, the “Log reduction … in 100 GSM cotton fabric” value [3] was 1.67 Log and the “Log reduction … in 300 GSM Polyester fabric” value [3] was 1.79 Log. For the same substance, the “Log reduction … in 300 GSM cotton fabric” value [3] was 1.67 Log, the “Log reduction … in 100 GSM Polyester fabric” value [4] was 1.85 Log and the “Log reduction … in 100 GSM cotton fabric” value [4] was 1.84 Log. The “Log reduction … in 300 GSM Polyester fabric” value [4] was 1.85 Log, the “Log reduction … in 300 GSM cotton fabric” value [4] was 1.87 Log and the “Log reduction … in 100 GSM Polyester fabric” value [5] was 2.68 Log. The “Log reduction … in 100 GSM cotton fabric” value [5] was 2.87 Log, the “Log reduction … in 300 GSM Polyester fabric” value [5] was 2.65 Log and the “Log reduction … in 300 GSM cotton fabric” value [5] was 2.88 Log. For the same substance, the “Log reduction … of each active ingredient” value (exhaust 80° C., 60 min, dosage 1% o.w.f (test up to 5% o.w.f)) was 2.35 Log, the “Log reduction … of each active ingredient” value (exhaust 80° C., 60 min, dosage 2% o.w.f) was 2.36 Log and the “Log reduction … of each active ingredient” value (exhaust 80° C., 60 min, dosage 3% o.w.f) was 2.37 Log. For the same substance, the “Log reduction … of each active ingredient” value (exhaust 80° C., 60 min, dosage 4% o.w.f) was 2.38 Log, the “Log reduction … of each active ingredient” value (exhaust 80° C., 60 min, dosage 5% o.w.f) was 2.41 Log and the “Log reduction … of each active ingredient” value (exhaust 80 ° C., solution dosage 1% o.w.f, process time 10 min) was 0.5 Log. For the same substance, the “Log reduction … of each active ingredient” value (exhaust 80 ° C., solution dosage 1% o.w.f, process time 20 min) was 1 Log, the “Log reduction … of each active ingredient” value (exhaust 80 ° C., solution dosage 1% o.w.f, process time 30 min) was 1.4 Log and the “Log reduction … of each active ingredient” value (exhaust 80 ° C., solution dosage 1% o.w.f, process time 40 min) was 1.9 Log. The “Log reduction … of each active ingredient” value (exhaust 80 ° C., solution dosage 1% o.w.f, process time 50 min) was 2.4 Log, the “Log reduction … of each active ingredient” value (exhaust 80 ° C., solution dosage 1% o.w.f, process time 60 min) was 2.8 Log and the “Log reduction … of each active ingredient” value (exhaust 80 ° C., solution dosage 1% o.w.f, process time 70 min) was 2.8 Log. For the same substance, the “Log reduction … of each active ingredient” value (exhaust 80 ° C., solution dosage 1% o.w.f, process time 80 min) was 2.8 Log, the “Log reduction … of each active ingredient” value (exhaust 80 ° C., solution dosage 1% o.w.f, process time 90 min) was 2.9 Log and the “Performance Test-Log reduction of antimicrobial performance” value (“Performance Test-Log reduction” below) (curing 120° C.) was 0.02 Log. The “Performance Test-Log reduction” value (curing 140° C.) was 0.24 Log, the “Performance Test-Log reduction” value (curing 150° C.) was 0.31 Log and the “Performance Test-Log reduction” value (curing 160° C.) was 0.53 Log.
